Laboratory results: patent US9636327B2 (University Health Network, Toronto General Hospital, priority 2013, dated 2017)

Assays:
[1] = more water-soluble than dantrolene; cited from earlier work
isolated rabbit hearts = assay: Ex-vivo rabbit model: Langendorff-perfused isolated hearts, VF induction and optical mapping of calcium alternans; parameters: species or system New-Zealand white rabbits
Method: New-Zealand white rabbits with weight ranging from 2.4-4.5 Kg were used. (n=14). All animals were anesthetized with sodium pentobarbital (35 mg/kg), aorta was attached to the Langendorff apparatus and retrogradely perfused with 37.5° C. oxygenated Tyrode solution with albumin 80 mg/L in deionized water equilibrated with 95% 02 and 5% CO2. Simultaneous optical mapping of epicardial surface of isolated hearts for Calcium and Voltage was performed using 0.5 mg Rhod2-AM and 10 microM/1 RH237. Blebbistatin at 10 microM/L was added to Tyrode solution to block cardiac contractions.
VF was induced by burst pacing for 30 sec at 60 Hz and 10V and hearts were continuously perfused during VF. […] VF was monitored for 4 min and then defibrillated at 5 J. Five minutes after termination of first VF episode, 4 more episodes of fibrillation-defibrillation were tried on each heart with 5 min recovery time (in sinus rhythm) in between. VF duration for each VF episode was 4 min (or shorter in case of self-termination) followed by defibrillation. […] Additionally, hearts were paced at various rates of 250, 220, 200, 180 and 160 msec Cycle Length (CL) for 30 seconds after first and second VF episodes. Simultaneous optical mapping of Calcium and voltage was performed during pacing to evaluate for Calcium Alternans. Calcium alternans was defined as beat-to-beat difference of more than 10% in Calcium wave amplitude. At the end of the experiment, LV tissue from the LV free wall was removed and frozen in liquid Nitrogen for further western blot analysis.
P<0.05 was considered statistically significant.

Yorkshire pigs = assay: In-vivo swine model of VF cardiac arrest with CPR and defibrillation;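 further: VF induced by burst pacing in anesthetized pigs, left untreated 4 min, then 3 min CPR and defibrillation, with ECG and aortic pressure monitored for 30 min afterwards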
Description: Previously healthy 10-12 weeks-old Yorkshire pigs (n=24) were used. […] Following endotracheal intubation anesthesia was maintained by continuous administration of Isoflurane (2% mixed with 100% O2) and ventilated (Ohio ventilator R.A.E. Technologies, Inc. Ontario) at 21 breaths/min and was continuously measured using CO2MO Plus monitoring system (Novametrix Medical Systems). Animals were continuously monitored using Lifepak 12 Medtronic-PhysioControl defibrillator for ECG monitoring. Two self-adhesive defibrillation pads were attached to the lateral aspects of the chest wall for defibrillation. (Medtronics Inc, Redmond, Wash.)
Femoral arteries and veins were catheterized and an EP catheter (EP Technologies Inc, Sunnyvale, Calif.) was placed in the right ventricle to enable pacing and to induce VF. Two micro manometer-tipped Millar catheters (Millar Instruments, Inc, Houston, Tex.) were placed in Abdominal Aorta and right atrium. Pacing catheter was further attached to a custom designed signal acquisition and processing system. (Electrophysiological Recording system-Acqui2, Toronto, ON) The pressure and ECG signals were recorded at 1000 Hz with a 0.05 Hz high pass and 500 Hz low pass filter by custom software. (Acqui2, Cartesian Labs)
After initial monitoring and stabilization, VF was induced by burst pacing (10V of 60 Hz current for 2 seconds) and left untreated for 4 minutes. Then, chest compression was started using a pneumatic device (Lucas, Jolife AB, Lund, Sweden) at 100 compressions/min and manual ventilation at 6 breath/min using 5-6 liters/min of 100% O2 with an AMBU bag was performed. CPR was continued for 3 minutes with no interruption of chest compressions. […] After successful defibrillation, animals were monitored for 30 min to assess the outcome and occurrence of Refibrillations. At the end, survivors were sacrificed by inducing VF. If animals could not be defibrillated during refibrillation, the energy level was increased in a stepwise fashion to up to 4 attempts at 360 J.
Refibrillation was defined as recurrence of VF after at least 5 beats of a non-VF rhythm following defibrillation. Survival was determined based on presence of sBP≧30 mmHg in abdominal aorta and normal sinus rhythm at the end of 30 min observation period. Time to Return of Spontaneous Circulation (ROSC) was calculated from the onset of CPR until sBP≧60 mmHg was attained in abdominal aorta after successful defibrillation. Sustained ROSC was defined as maintenance of sBP≧60 mmHg by the end of 30-min observation post-defibrillation. Ventricular ERP was measured at baseline and at 20 minutes into recovery (if any) via the S1-S2 stimulation method. Surface ECG signals at 4 min of VF and at 7 min of VF were extracted to analyze for VF organization. A Spatio-temporal index of VF organization (Regularity Index (RI)) was used. RI was defined as the ratio of the power at the Dominant Frequency (DF) to the total power. […] The total power was calculated as the sums over the range of 5-15 Hz. Values vary between 0 (disorganized) to 1 (highly organized).
Mean time to ROSC, mean time to successful defibrillation, onset of refibrillation and regularity index of VF at different time points were analyzed using unpaired student t-test. Repeated-measures ANOVA was used to compare continuous variables between groups at different time points. Protein phosphorylation analysis and comparison of ordinal variables (number of refibrillations) were performed using Wilcoxon Mann-Whitney test. […] P<0.05 was considered statistically significant. All statistical analysis were performed using Stata 11.1 (Stata Corp LP)

[2] = 2 mg/kg bolus, defibrillation energy
[3] = 2 mg/kg bolus, post-defibrillation

Question: With `O=C1CN(/N=C/c2ncc(-c3ccc(Br)cc3)o2)C(=O)N1` [Azumolene] as the compound, how does the “water solubility relative to dantrolene” value [1] read?
Answer: 30 times

Question: For `O=C1CN(N=Cc2ccc(-c3ccc([N+](=O)[O-])cc3)o2)C(=O)N1.[Na]` [Dantrolene, 1-[[[5-(4-nitrophenyl)-2-furanyl]methylene]amino]-2,4-imidazolidinedione sodium salt], which “Incidence of CaA-ALT after second VF” value (isolated rabbit hearts; Dantrolene 10-20 μM/l) is on record?
Answer: approximately 12.5%

Question: And the “mean duration of all VF episodes combined” value (isolated rabbit hearts; Dantrolene 10-20 μM/l)?
Answer: about 194±234 sec

Question: And the “successful attempts to induce VF (VF lasting ≧10 sec)” value (isolated rabbit hearts; Dantrolene 10-20 μM/l infused at 1 min of first VF, 12 of 31 attempts)?
Answer: 38.7%

Question: What about the “VF episodes sustained >60 sec” value (isolated rabbit hearts; Dantrolene 10-20 μM/l, 7 of 31 attempts) of the same compound?
Answer: 22.58%

Question: And the alternans threshold (isolated rabbit hearts; Dantrolene 10-20 μM/l, pacing cycle length)?
Answer: about 186±11 msec CL

Question: What about the “Number of Refibrillations” value (Yorkshire pigs; 2 mg/kg bolus) of the same compound?
Answer: 0.6 ± 0.4

Question: And the “Number of shocks to terminate refibrillations” value (Yorkshire pigs; 2 mg/kg bolus)?
Answer: 1 ± 0

Question: What about the “Sinus rhythm immediately post-defibrillation” value (Yorkshire pigs; 2 mg/kg bolus) of the same compound?
Answer: approximately 90.91%

Question: And the “Survival after Refibrillation” value (Yorkshire pigs; 2 mg/kg bolus)?
Answer: 100% (3)

Question: And the “Time to ROSC calculated from immediately post-defibrillation” value (Yorkshire pigs; 2 mg/kg bolus)?
Answer: about 13±4 sec

Question: What about the “Time to onset of Refibrillation” value (Yorkshire pigs; 2 mg/kg bolus) of the same compound?
Answer: 51 ± 9 s

Question: And the “animals requiring energy levels ≦200J for defibrillating the initial VF” value (Yorkshire pigs; 2 mg/kg bolus)?
Answer: Ninety

Question: What about the “sBP peak at 5 min post-defibrillation” value (Yorkshire pigs; 2 mg/kg bolus) of the same compound?
Answer: approximately 98±17 mmHg

Question: And the “Final Rhythm PEA” value (Yorkshire pigs; 2 mg/kg bolus at onset of CPR)?
Answer: 0%

Question: And the “Final Rhythm Sinus” value (Yorkshire pigs; 2 mg/kg bolus at onset of CPR)?
Answer: 90.91%

Question: And the “Final Rhythm VF (or VrF)” value (Yorkshire pigs; 2 mg/kg bolus at onset of CPR)?
Answer: 9.09%

Question: And the “ROSC (at 5 min post-defibrillation)” value (Yorkshire pigs; 2 mg/kg bolus at onset of CPR)?
Answer: 90.91%

Question: And the “post-defibrillation VERP” value (Yorkshire pigs; 2 mg/kg bolus, 20 minutes into recovery)?
Answer: about 215±9 msec

Question: And the “Refibrillation Incidence” value (Yorkshire pigs; 2 mg/kg bolus, 30 min monitoring after defibrillation)?
Answer: 36.36%

Question: And the Maximum energy level (Yorkshire pigs; [2])?
Answer: 187 ± 62 J

Question: What about the Total energy level (Yorkshire pigs; [2]) of the same compound?
Answer: 366 ± 139

Question: And the “Total time in VF Including VrF (refibrillation)” value (Yorkshire pigs; 2 mg/kg bolus, initial VF plus all refibrillations)?
Answer: 478 ± 19 s

Question: And the “Total time in VF Excluding VrF” value (Yorkshire pigs; 2 mg/kg bolus, initial VF without refibrillations)?
Answer: 466 ± 18 s

Question: What about the QT interval post-defibrillation (Yorkshire pigs; [3]) of the same compound?
Answer: about 334±83 msec

Question: What about the “Tp-Tn (repolarization dispersion) post-defibrillation” value (Yorkshire pigs; [3]) of the same compound?
Answer: about 84±22 msec

Question: What about the “Number of shocks (>2 attempts)” value (Yorkshire pigs; 2 mg/kg bolus, share of animals needing >2 attempts) of the same compound?
Answer: 9.09%

Question: What about the Refibrillation duration (Yorkshire pigs; 2 mg/kg bolus, sodium salt, 2 mg/kg) of the same compound?
Answer: 32 ± 6 s

Question: And the “mean dBP at the end of experiment” value (Yorkshire pigs; 2 mg/kg bolus, survivors)?
Answer: about 61±10 mmHg

Question: And the “mean sBP at the end of experiment” value (Yorkshire pigs; 2 mg/kg bolus, survivors)?
Answer: about 84±11 mmHg

Question: And the Successful defibrillation (Yorkshire pigs; Dantrolene Sodium 2 mg/kg bolus at onset of CPR after 4 min untreated VF)?
Answer: 100%

Question: And the “QT interval at baseline” value (Yorkshire pigs; Dantrolene group, baseline)?
Answer: about 432±48 msec

Question: What about the “Tp-Tn (repolarization dispersion) at baseline” value (Yorkshire pigs; Dantrolene group, baseline) of the same compound?
Answer: about 68±23 msec
